In US5428038A, “Benzopyranones, a method for producing them and uses therefor” (Dr. Willmar Schwabe GmbH & Co., priority 1991, dated 1995):

What was measured:
[1] = tested on: NMDA-induced tonic convulsions; assay: NMDA test (40 mg/kg i.v.), protection against tonic convulsions (antiepileptic efficacy); assay type: in vivo, male NMRI mice; settings: Mus musculus, po, NMDA 40 mg/kg i.v.
Procedure: In order to determine the neuroprotective and anticonvulsive activity of the compounds in accordance with the invention of the general formula I, two slightly different methods were employed as follows: […]
1. In order to determine the neuroprotective efficacy NMDA at a rate of 25 mg/kg/10 ml was administered intravenously to male NMRI mice with a body weight of 20 to 25 g. As a consequence of this application the animals suffer clonic and partly tonic convulsions, which lead to death. As a criterion for the efficacy of the investigated compounds prevention of death is used.
2. In order to ascertain the antiepileptic efficacy the same method was utilized with an NMDA dosage of 40 mg/kg/10 ml i.v. This higher NMDA dosage led in the case of all animals to the occurrence of tonic convulsions.
All animals used in the investigations had free access to food and water prior to the experiments. The test and reference substances were all administered as a suspension in 0.2% agar or water, partly by the intermediary of solution promoters such as for instance PEG-400, perorally using an esophageal probe. Control animals received the same volumes of the solvent with optional solution promoters. One hour after the application of the substance NMDA was administered intravenously and the animals observed for the occurrence of convulsions.
In table 2 the results of the tests (NMDA 40 mg i.v.) performed in accordance with method 2 are compiled with dosages of 5-25 mg of the compounds in accordance with the invention per kg of body weight in comparison with known anticonvulsants and antiepileptics. As a percentage efficacy the percentage of animals is used which in the test were protected against the occurrence of tonic convulsions.
The determination of the ED50 values was performed in accordance with the method described in Lichtfield and Wilcoxon, J. Pharmacol. exp. Therapeut. 96, 99 (1949) in each case with 4 to 5 groups of 10 animals per dosage rate.

[2] = tested on: NMDA-induced death; assay: NMDA test (25 mg/kg i.v.), prevention of NMDA-induced death (neuroprotective efficacy); assay type: in vivo, male NMRI mice; settings: Mus musculus, po, NMDA 25 mg/kg i.v.
[3] = tested on: ovalbumin-induced anaphylactic paw edema; assay: Passive rat paw anaphylaxy (inhibition of edema volume; antiallergic and anti-inflammatory); assay type: in vivo, male Sprague-Dawley rats; settings: Rattus norvegicus, po; 25 mg/kg p.o. 1 h before test; read-out: Protective action (percentage inhibition of edema volume)
Procedure: The determination of the antiallergic and anti-inflammatory properties of the compounds in accordance with the invention was using a passive rat paw anaphylaxy model.
Male Sprague-Dawley rats were utilized for all tests. The animals were kept under standardized environmental conditions with free access to food and water. For sensitization to the antigen 100 μl of a mouse antiserum to ovalbumin was injected sublplantarly into the left rear paw. […] The opposite paw was for control injected subplantarly only with 100 μl of the solvent (sterile physiological NaCl solution). Overnight the investigated animals were deprived of food but had water ad lib.
Per group in all tests between 6 and 8 animals were used. One hour later the anaphylactic reaction was caused by the intravenous injection of 10 mg/10 ml/kg ovalbumin in physiological NaCl solution. […] The edema volume was calculated from the difference between the values of the two paws. The antiallergic action is in this case expressed as a percentage inhibition of the edema volume of the animals in the test group as compared with control groups undergoing parallel investigation. […] The determination of the ED50 values was performed by linear regression after log transformation of the administered doses, at least three dosage rates being employed.

`COc1cc2oc(=O)c3c(c2cc1OCCCN1CCC(c2ccccc2)CC1)CCC3` [Example 49, 2,3-dihydro-7-methoxy-8-[3-(4-phenyl-1-piperidinyl)propoxy]cyclopenta[c][1]benzopyran-4(1H)-one] showed an ED50 ([1]; 1 h, dose protecting 50% of animals against tonic convulsions one hour after application, read-out: ED50) of 4 mg/kg, a responders at 20 mg/kg ([1]; 20 mg/kg p.o. 1 h before test, read-out: Protective action (percentage of animals protected against tonic convulsions)) of 87.5% and an ED50 ([2]; 1 h, dose protecting 50% of animals against NMDA-induced death one hour after application) of 6.8 mg/kg. It also gave a responders at 25 mg/kg ([2]; 25 mg/kg p.o. 1 h before test, read-out: Protective action (percentage of surviving animals)) of 75% and an inhibition in vivo at 25 mg/kg [3] of 47%.
